Experimental data taken from ChEMBL document CHEMBL1152074, “Synthesis and antimalarial evaluation of 2,3,5-trioxabicyclo[2.2.2]octanes, models for the putative pharmacophore of qinghaosu (artemisinin)” (Bioorg Med Chem Lett, 1992).
In brackets after ≈: the same amount, converted by molar mass.

Columns and labels:
Assay type in all cases: functional, organism-based
Plasmodium falciparum [1] = assay: Inhibitory concentration IC50 against chloroquine-resistant falciparum indochina(W-2) malaria in humans; 7079-48759
Plasmodium falciparum [2] = assay: Inhibitory concentration (IC50) against chloroquine-sensitive falciparum sierra leone […] in human malaria; 10000-46608
Plasmodium falciparum [3] = assay: Inhibitory concentration (IC50) against chloroquine-resistant falciparum Indochina W2 in human malaria
Plasmodium falciparum [4] = assay: Inhibitory concentration (IC50) against chloroquine-sensitive falciparum sierra leone […] in human malaria
Plasmodium falciparum [5] = assay: Inhibitory concentration (IC50) against chloroquine-sensitive falciparum sierra leone […] in human malaria; 9569-21648
Plasmodium falciparum [6] = assay: Inhibitory concentration IC50 against chloroquine-resistant falciparum W-2 indochina human malaria; 8000-18088
Plasmodium falciparum [7] = assay: Inhibitory concentration (IC50) against chloroquine-resistant falciparum indochina W-2 in human malaria; 60-50000
Plasmodium falciparum [8] = assay: Inhibitory concentration (IC50) against chloroquine-sensitive falciparum sierra leone […] in human malaria; 979-50000
[9] = Plasmodium falciparum, read-out: IC50

| Structure (SMILES) | IC50 (Plasmodium falciparum [3]; [9]) [µg/mL] | IC50 (Plasmodium falciparum [4]) [µg/mL] | also measured |
| --- | --- | --- | --- |
| CO[C@]1(C)CC[C@@H](OO)CO1 | – | – | IC50 (Plasmodium falciparum [1]): 7.08 µg/mL (≈ 43.6 µM); IC50 (Plasmodium falciparum [2]): 10 µg/mL (≈ 61.7 µM) |
| COC1CCC(OO)CO1 (stereo unspecified) | 1.05 (≈ 7.06 µM) | 0.472 (≈ 3.19 µM) | – |
| COC1CCC(CO)OO1 (stereo unspecified) | 0.454 (≈ 3.06 µM) | 0.531 (≈ 3.58 µM) | – |
| C[C@@H]1CC[C@H]2[C@@H](C)C(=O)O[C@@H]3O[C@@]4(C)CC[C@@H]1[C@]32OO4 [ARTEMISININ] | – | 0.00202 (≈ 0.00715 µM) | – |
| CO[C@H]1CC[C@H](OO)[C@@H](C)O1 | 3.44 (≈ 21.2 µM) | 1.01 (≈ 6.2 µM) | – |
| C[C@H]1OC2CCC1OO2 (stereo partly specified) | 13.1 (≈ 101 µM) | 8.46 (≈ 65 µM) | – |
| CO[C@H]1CC[C@@H](OO)[C@@H](C)O1 | – | – | IC50 (Plasmodium falciparum [5]): 9.57 µg/mL (≈ 59 µM); IC50 (Plasmodium falciparum [6]): 8 µg/mL (≈ 49.3 µM) |
| COC1CC[C@@H]([C@H](C)O)OO1 (stereo partly specified) | 12.3 (≈ 75.7 µM) | 7.35 (≈ 45.3 µM) | – |
| CC12CCC(CO1)OO2 (stereo unspecified) | – | 50 (≈ 384 µM) | IC50 (Plasmodium falciparum [3]): > 100 µg/mL |
| C1CC2OCC1OO2 (stereo unspecified) | – | – | IC50 (Plasmodium falciparum [7]): 0.06 µg/mL (≈ 0.517 µM); IC50 (Plasmodium falciparum [8]): 0.979 µg/mL (≈ 8.43 µM) |
| C[C@@H]1OC2CCC1OO2 (stereo partly specified) | 28.8 (≈ 222 µM) | 28.5 (≈ 219 µM) | – |
